According to US20250368666A1, “INDAZOLE COMPOUNDS” (TYRA BIOSCIENCES, INC., priority 2022, published 2025):

How the values were obtained:
[1] = system: MDA-MB-453 cell line (FGFR4-Y367C); test: Cancer cell line cell viability assay (Cell Titer-Glo), 120 hr; assay type: cell-based; conditions: Homo sapiens
Method in brief: (§1)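 Following overnight attachment, each line receives compound in triplicate across nine 4-fold dilutions starting at 3 μM, with DMSO backfill for equal solvent. Luminescence after Cell Titer-Glo 2.0 addition gives percent viability versus DMSO control, fitted by 4-parameter logistic for IC50.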

[2] = system: RT112/84 cell line (FGFR3-fusion); test: Cancer cell line cell viability assay (Cell Titer-Glo), 72 hr; assay type: cell-based; conditions: Homo sapiens, RT112/84, RT112/84 cell line (FGFR3-fusion)
Method in brief: as §1

[3] = system: KG-1 cell line (FGFR 1-fusion); test: as above; assay type: cell-based; conditions: Homo sapiens, KG-1, KG-1 cell line (FGFR1-fusion)
Method in brief: as §1

[4] = system: KATO-III cell line (FGFR2 amplification); test: as above; assay type: cell-based; conditions: Homo sapiens, KATO III
Method in brief: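 Luminescent ATP read-out (Cell Titer-Glo 2.0) after compound exposure, normalised to DMSO-only wells. Dosing: 9 concentrations, 4-fold steps, top 3 μM, triplicates. IC50 derived by log(inhibitor) vs. response 4-parameter fit.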

FGFR1 = biological target: T1, FGFR1 (Homo sapiens, UniProt P11362); test: Kinase binding assay (kinase-tagged T7 phage, affinity beads, qPCR), Kd; conditions: read-out: FGFR1 (Kd nM)
T1 construct: made in house; host or cells: E. coli (BL21-derived), T7 phage
Method in brief: (§2)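 Kd obtained by Levenberg–Marquardt Hill-equation fit (slope −1) to qPCR-measured kinase retained on ligand-coated streptavidin beads.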

FGFR3 (V555M) = biological target: T2, FGFR3 (V555M) (Homo sapiens, UniProt P22607, V555M); test: as above; conditions: V555M mutant; read-out: FGFR3 (V555M) (Kd nM)
T2 construct: made in house; host or cells: E. coli (BL21-derived), T7 phage
Method in brief: as §2

FGFR3 = biological target: T3, FGFR3 (Homo sapiens, UniProt P22607); test: as above; conditions: read-out: FGFR3 (Kd nM)
T3 construct: made in house; host or cells: E. coli (BL21-derived), T7 phage
Method in brief: as §2

FGFR2 = biological target: T4, FGFR2 (Homo sapiens, UniProt P21802); test: as above; conditions: read-out: FGFR2 (Kd nM)
T4 construct: made in house; host or cells: E. coli (BL21-derived), T7 phage
Method in brief: as §2

FGFR4 = biological target: T5, FGFR4 (Homo sapiens, UniProt P22455); test: as above; conditions: read-out: FGFR4 (Kd nM)
T5 construct: made in house; host or cells: E. coli (BL21-derived), T7 phage
Method in brief: as §2

T1 sequence (P11362 22-822): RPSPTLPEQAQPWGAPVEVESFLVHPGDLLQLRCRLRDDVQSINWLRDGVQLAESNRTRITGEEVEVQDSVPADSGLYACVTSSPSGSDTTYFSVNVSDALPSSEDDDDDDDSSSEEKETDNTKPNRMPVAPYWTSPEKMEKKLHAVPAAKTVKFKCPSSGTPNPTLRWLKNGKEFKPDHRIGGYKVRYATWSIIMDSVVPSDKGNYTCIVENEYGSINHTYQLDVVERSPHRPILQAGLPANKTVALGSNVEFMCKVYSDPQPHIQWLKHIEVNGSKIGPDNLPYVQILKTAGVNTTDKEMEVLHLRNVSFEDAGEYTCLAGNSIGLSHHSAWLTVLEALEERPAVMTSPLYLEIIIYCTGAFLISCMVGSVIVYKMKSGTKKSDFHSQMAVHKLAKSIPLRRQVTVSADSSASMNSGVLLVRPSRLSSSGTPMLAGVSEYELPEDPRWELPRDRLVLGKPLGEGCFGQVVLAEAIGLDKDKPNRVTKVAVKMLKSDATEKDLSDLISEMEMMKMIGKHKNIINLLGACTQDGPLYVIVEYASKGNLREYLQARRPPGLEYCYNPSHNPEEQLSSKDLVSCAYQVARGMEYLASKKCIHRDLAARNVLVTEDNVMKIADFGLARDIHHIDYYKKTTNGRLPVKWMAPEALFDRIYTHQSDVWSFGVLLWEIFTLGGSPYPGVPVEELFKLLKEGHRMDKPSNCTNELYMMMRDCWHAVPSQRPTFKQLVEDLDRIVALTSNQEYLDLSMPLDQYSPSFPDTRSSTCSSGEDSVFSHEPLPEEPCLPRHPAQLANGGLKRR
T2 sequence (P22607 23-806 V555M): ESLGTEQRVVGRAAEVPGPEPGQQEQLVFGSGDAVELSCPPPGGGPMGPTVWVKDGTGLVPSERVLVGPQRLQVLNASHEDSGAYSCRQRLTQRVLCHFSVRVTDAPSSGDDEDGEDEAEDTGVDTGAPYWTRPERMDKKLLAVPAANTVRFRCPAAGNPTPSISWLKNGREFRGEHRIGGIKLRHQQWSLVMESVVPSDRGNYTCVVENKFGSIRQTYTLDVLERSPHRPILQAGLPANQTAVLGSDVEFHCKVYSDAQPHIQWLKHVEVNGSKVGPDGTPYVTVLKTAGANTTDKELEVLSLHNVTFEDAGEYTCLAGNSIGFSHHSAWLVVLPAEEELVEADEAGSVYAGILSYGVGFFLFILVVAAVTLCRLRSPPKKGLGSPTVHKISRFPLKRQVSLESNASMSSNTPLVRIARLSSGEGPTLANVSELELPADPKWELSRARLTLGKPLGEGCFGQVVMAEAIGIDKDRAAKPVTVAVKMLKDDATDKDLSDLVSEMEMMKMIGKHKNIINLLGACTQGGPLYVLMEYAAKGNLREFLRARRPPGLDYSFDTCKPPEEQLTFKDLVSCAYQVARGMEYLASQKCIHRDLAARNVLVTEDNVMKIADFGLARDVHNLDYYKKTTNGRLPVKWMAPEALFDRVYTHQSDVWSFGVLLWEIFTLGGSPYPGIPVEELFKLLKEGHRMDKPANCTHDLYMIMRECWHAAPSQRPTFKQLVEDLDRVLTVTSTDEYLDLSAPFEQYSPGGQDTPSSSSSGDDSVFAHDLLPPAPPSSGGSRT
T5 sequence (P22455 22-802): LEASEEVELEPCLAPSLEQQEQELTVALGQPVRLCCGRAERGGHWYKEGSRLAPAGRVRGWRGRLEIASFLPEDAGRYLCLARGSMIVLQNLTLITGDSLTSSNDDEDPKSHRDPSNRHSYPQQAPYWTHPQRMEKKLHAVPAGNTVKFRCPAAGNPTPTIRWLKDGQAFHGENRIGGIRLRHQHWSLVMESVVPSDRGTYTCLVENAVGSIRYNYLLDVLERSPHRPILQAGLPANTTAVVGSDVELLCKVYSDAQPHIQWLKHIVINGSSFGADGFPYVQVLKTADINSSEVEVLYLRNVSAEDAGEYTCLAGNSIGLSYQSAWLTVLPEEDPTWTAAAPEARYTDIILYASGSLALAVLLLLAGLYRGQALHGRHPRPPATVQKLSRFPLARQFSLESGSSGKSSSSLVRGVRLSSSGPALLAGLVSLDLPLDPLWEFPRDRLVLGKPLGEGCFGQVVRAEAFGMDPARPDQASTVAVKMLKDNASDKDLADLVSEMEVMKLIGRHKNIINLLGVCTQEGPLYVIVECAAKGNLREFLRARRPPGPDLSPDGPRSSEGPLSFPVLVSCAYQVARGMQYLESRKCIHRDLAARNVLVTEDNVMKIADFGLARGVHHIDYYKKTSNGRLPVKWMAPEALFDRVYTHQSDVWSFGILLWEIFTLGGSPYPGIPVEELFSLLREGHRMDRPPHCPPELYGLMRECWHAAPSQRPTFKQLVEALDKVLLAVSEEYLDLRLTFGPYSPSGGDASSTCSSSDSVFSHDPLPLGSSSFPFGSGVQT
T4 sequence (P21802 22-821): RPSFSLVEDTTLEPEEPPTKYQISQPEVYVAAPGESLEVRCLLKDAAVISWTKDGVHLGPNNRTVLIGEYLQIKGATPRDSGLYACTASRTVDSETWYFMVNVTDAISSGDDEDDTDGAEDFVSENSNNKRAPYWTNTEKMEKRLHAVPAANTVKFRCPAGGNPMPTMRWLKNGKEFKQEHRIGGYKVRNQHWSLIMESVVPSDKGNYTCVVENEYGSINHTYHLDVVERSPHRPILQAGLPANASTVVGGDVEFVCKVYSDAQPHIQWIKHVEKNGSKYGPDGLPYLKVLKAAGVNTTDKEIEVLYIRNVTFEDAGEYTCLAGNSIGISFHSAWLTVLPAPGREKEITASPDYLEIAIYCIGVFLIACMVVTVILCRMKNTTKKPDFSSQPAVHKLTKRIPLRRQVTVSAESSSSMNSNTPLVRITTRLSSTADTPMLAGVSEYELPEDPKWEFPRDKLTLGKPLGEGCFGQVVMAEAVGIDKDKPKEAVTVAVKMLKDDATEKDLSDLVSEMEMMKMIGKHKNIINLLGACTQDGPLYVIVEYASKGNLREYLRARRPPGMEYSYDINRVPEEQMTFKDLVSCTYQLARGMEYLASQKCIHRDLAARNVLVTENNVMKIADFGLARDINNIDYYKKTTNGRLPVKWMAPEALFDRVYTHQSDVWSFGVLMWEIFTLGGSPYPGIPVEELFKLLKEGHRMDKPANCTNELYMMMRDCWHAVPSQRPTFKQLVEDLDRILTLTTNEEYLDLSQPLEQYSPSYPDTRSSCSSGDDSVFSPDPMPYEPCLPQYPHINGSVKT
T3 sequence (P22607 23-806): as the sequence (P22607 23-806 V555M) above, with M533V counted along it

Compound	IC50 [1]	IC50 [2]	IC50 [3]	IC50 [4]	Kd (FGFR1)	Kd (FGFR3 (V555M))	Kd (FGFR3)	Kd (FGFR2)	Kd (FGFR4)
Cc1ncc(Cl)c([C@@H](C)Oc2ccc3[nH]nc(-c4ccc(N5CC(C)(N(C)C)C5)nc4)c3c2)c1Cl [Example 78, 1-[5-[5-[(1R)-1-(3,5-dichloro-2-methyl-4-pyridyl)ethoxy]-1H-indazol-3-yl]-2-pyridyl]-N,N,3-trimethyl-azetidin-3-amine]	200 to 1000 nM	0.1 to 50 nM	200 to 1000 nM	50 to 200 nM	1 to 50 nM	1 to 50 nM	1 to 50 nM	1 to 50 nM	1 to 50 nM
COc1cc2[nH]nc(-c3ccc(N4CC(C)(NCCO)C4)nc3)c2cc1O[C@H](C)c1c(Cl)cncc1Cl [Example 83, (R)-2-((1-(5-(5-(1-(3,5-dichloropyridin-4-yl)ethoxy)-6-methoxy-1H-indazol-3-yl)pyridin-2-yl)-3-methylazetidin-3-yl)amino)ethan-1-ol]	0.1 to 50 nM	0.1 to 50 nM	50 to 200 nM	0.1 to 50 nM	1 to 50 nM	1 to 50 nM	1 to 50 nM	1 to 50 nM	1 to 50 nM
C[C@@H](Oc1ccc2[nH]nc(-c3cnc(N4CC(C)(NCC5CC5)C4)c(F)c3)c2c1)c1c(Cl)cncc1Cl [Example 106, (R)-N-(cyclopropylmethyl)-1-(5-(5-(1-(3,5-dichloropyridin-4-yl)ethoxy)-1H-indazol-3-yl)-3-fluoropyridin-2-yl)-3-methylazetidin-3-amine]	50 to 200 nM	0.1 to 50 nM	50 to 200 nM	50 to 200 nM	1 to 50 nM	1 to 50 nM	1 to 50 nM	1 to 50 nM	1 to 50 nM
CC(C)CNC1(C)CN(c2ncc(-c3n[nH]c4ccc(O[C@H](C)c5c(Cl)cncc5Cl)cc34)cc2F)C1 [Example 138, 1-[5-[5-[(1R)-1-(3,5-dichloro-4-pyridyl)ethoxy]-1H-indazol-3-yl]-3-fluoro-2-pyridyl]-N-isobutyl-3-methyl-azetidin-3-amine]	50 to 200 nM	0.1 to 50 nM	50 to 200 nM	0.1 to 50 nM	1 to 50 nM	1 to 50 nM	1 to 50 nM	1 to 50 nM	1 to 50 nM
C[C@@H](Oc1ccc2[nH]nc(-c3cnc(N4CC(C)(NCC(F)F)C4)c(F)c3)c2c1)c1c(Cl)cncc1Cl [Example 155, 1-[5-[5-[(1R)-1-(3,5-dichloro-4-pyridyl)ethoxy]-1H-indazol-3-yl]-3-fluoro-2-pyridyl]-N-(2,2-difluoroethyl)-3-methyl-azetidin-3-amine]	50 to 200 nM	0.1 to 50 nM	50 to 200 nM	0.1 to 50 nM	1 to 50 nM	1 to 50 nM	1 to 50 nM	1 to 50 nM	1 to 50 nM
C[C@@H](Oc1ccc2[nH]nc(-c3cnc(N4CC(C)(NCCS(C)(=O)=O)C4)c(F)c3)c2c1)c1c(Cl)cncc1Cl [Example 166, (R)-1-(5-(5-(1-(3,5-Dichloropyridin-4-yl)ethoxy)-1H-indazol-3-yl)-3-fluoropyridin-2-yl)-3-methyl-N-(2-(methylsulfonyl)ethyl)azetidin-3-amine]	0.1 to 50 nM	0.1 to 50 nM	50 to 200 nM	0.1 to 50 nM	1 to 50 nM	1 to 50 nM	1 to 50 nM	1 to 50 nM	1 to 50 nM
C[C@@H](Oc1ccc2[nH]nc(-c3cnc(N4CC(C)(N5CCS(=O)(=O)CC5)C4)c(F)c3)c2c1)c1c(Cl)cncc1Cl [Example 167, 4-[1-[5-[5-[(1R)-1-(3,5-dichloro-4-pyridyl)ethoxy]-1H-indazol-3-yl]-3-fluoro-2-pyridyl]-3-methyl-azetidin-3-yl]-1,4-thiazinane 1,1-dioxide]	0.1 to 50 nM	0.1 to 50 nM	50 to 200 nM	0.1 to 50 nM	1 to 50 nM	1 to 50 nM	1 to 50 nM	1 to 50 nM	1 to 50 nM
C[C@@H](Oc1ccc2[nH]nc(-c3ccc(N4CC(C)(CS(C)(=O)=O)C4)nc3)c2c1)c1c(Cl)cncc1Cl [Example 181, (R)-5-(1-(3,5-dichloropyridin-4-yl)ethoxy)-3-(6-(3-methyl-3-((methylsulfonyl)-methyl)azetidin-1-yl)pyridin-3-yl)-1H-indazole]	50 to 200 nM	0.1 to 50 nM	50 to 200 nM	0.1 to 50 nM	1 to 50 nM	1 to 50 nM	1 to 50 nM	1 to 50 nM	1 to 50 nM
C[C@@H](Oc1ccc2[nH]nc(-c3cnc(N4CC(C)(NCP(C)(C)=O)C4)c(F)c3)c2c1)c1c(Cl)cncc1Cl [Example 182, 1-[5-[5-[(1R)-1-(3,5-dichloro-4-pyridyl)ethoxy]-1H-indazol-3-yl]-3-fluoro-2-pyridyl]-N-(dimethylphosphorylmethyl)-3-methyl-azetidin-3-amine]	0.1 to 50 nM	0.1 to 50 nM	200 to 1000 nM	0.1 to 50 nM	1 to 50 nM	1 to 50 nM	1 to 50 nM	1 to 50 nM	1 to 50 nM
C[C@H](Oc1ccc2[nH]nc(-c3cnc(N4CC(C)(CS(C)(=O)=O)C4)c(F)c3)c2c1)c1c(Cl)cncc1Cl [Example 200, (S)-5-(1-(3,5-dichloropyridin-4-yl)ethoxy)-3-(5-fluoro-6-(3-methyl-3-((methyl-sulfonyl)meth-yl)azetidin-1-yl)pyridin-3-yl)-1H-indazole]	> 1000 nM	> 1000 nM	> 1000 nM	> 1000 nM	300 to 1000 nM	1 to 50 nM	50 to 300 nM	> 1000 nM	50 to 300 nM
CNC1(C)CN(c2ncc(-c3n[nH]c4ccc(O[C@@H](C)c5c(Cl)cncc5Cl)cc34)cc2F)C1 [Example 205, 1-[5-[5-[(1S)-1-(3,5-dichloro-4-pyridyl)ethoxy]-1H-indazol-3-yl]-3-fluoro-2-pyridyl]-N,3-dimethyl-azetidin-3-amine]	> 1000 nM	> 1000 nM	> 1000 nM	200 to 1000 nM	50 to 300 nM	1 to 50 nM	50 to 300 nM	300 to 1000 nM	50 to 300 nM
C[C@@H](Oc1ccc2[nH]nc(-c3cnc(N4C[C@@H](CS(C)(=O)=O)[C@@H]4C)c(F)c3)c2c1)c1c(Cl)cncc1Cl [Example 206, 5-((R)-1-(3,5-dichloropyridin-4-yl)ethoxy)-3-(5-fluoro-6-((2S,3R)-2-methyl-3-((methylsulfonyl)methyl)azetidin-1-yl)pyridin-3-yl)-1H-indazole]	50 to 200 nM	0.1 to 50 nM	50 to 200 nM	0.1 to 50 nM	1 to 50 nM	1 to 50 nM	1 to 50 nM	1 to 50 nM	1 to 50 nM
C[C@@H]1[C@@H](CS(C)(=O)=O)CN1c1ncc(-c2n[nH]c3ccc(O[C@H](C)c4c(Cl)cncc4Cl)cc23)cc1F [Example 207, 5-((R)-1-(3,5-dichloropyridin-4-yl)ethoxy)-3-(5-fluoro-6-((2R,3S)-2-methyl-3-((methylsulfonyl)methyl)azetidin-1-yl)pyridin-3-yl)-1H-indazole]	50 to 200 nM	0.1 to 50 nM	50 to 200 nM	50 to 200 nM	1 to 50 nM	1 to 50 nM	1 to 50 nM	1 to 50 nM	1 to 50 nM
C[C@@H](Oc1ccc2[nH]nc(-c3ccc(N4CC(C)(NCC5CC5)C4)nc3)c2c1)c1c(Cl)cncc1Cl [Example 219, (R)-N-(cyclo-propylmethyl)-1-(5-(5-(1-(3,5-dichloropyridin-4-yl)ethoxy)-1H-indazol-3-yl)pyridin-2-yl)-3-methylazetidin-3-amine]	50 to 200 nM	0.1 to 50 nM	0.1 to 50 nM	0.1 to 50 nM	1 to 50 nM	1 to 50 nM	1 to 50 nM	1 to 50 nM	1 to 50 nM
CC(=O)N1CCN(C2(C)CN(c3ncc(-c4n[nH]c5ccc(O[C@H](C)c6c(Cl)cncc6Cl)cc45)cc3F)C2)CC1 [Example 220, 1-[4-[1-[5-[5-[(1R)-1-(3,5-dichloro-4-pyridyl)ethoxy]-1H-indazol-3-yl]-3-fluoro-2-pyridyl]-3-methyl-azetidin-3-yl]piperazin-1-yl]ethanone]	50 to 200 nM	0.1 to 50 nM	50 to 200 nM	0.1 to 50 nM	1 to 50 nM	1 to 50 nM	1 to 50 nM	1 to 50 nM	1 to 50 nM
